Laboratory results reported in EP0358085A1, “(1R,5S,6S)-6-[(R)-1-Hydroxyethyl]-1-methyl-2-[(1-alkyl-1,2,4-triazolium-2-yl)alkyl]-thio-carbapenem-3-carboxylic acid derivatives” (LEDERLE (JAPAN) LTD., priority 1988, dated 1990).
Values after ≈ are worked out from the molar mass of the structure shown. Read-outs that look alike come from different tables or passages of the source.

What was measured:
[1] = molecular target: T1, Swine Kidney Dehydropeptidase-I (DHP-I) (Sus scrofa, UniProt P22412); experiment: Stability of test compounds against DHP-I by HPLC; assay type: in vitro ADME; conditions: 37°C, 4.5 hours, Substrate Concentration: 100 µM
T1 construct: made soluble by treatment with butanol and purified by the ammonium sulfate fraction method, thereby producing DHP-I enzyme; from tissue; host or cells: swine kidney
Description: The swine kidney (8 kg) was homogenized and the enzyme protein was allowed to precipitate. After a connective lipid was removed with acetone, the resultant material was made soluble by treatment with butanol and purified by the ammonium sulfate fraction method, thereby producing DHP-I enzyme from a 75 % ammonium sulfate fraction. The DHP-I enzyme was then adjusted to give an enzyme concentration of 25 mg/10 ml (phosphate buffer, pH 7.1), and divided into 1 ml portions. The portions were frozen and stored at -40°C or less until use. The test compound was adjusted in situ to give a concentration of 117µM with a 50 mM sodium phosphate buffer solution (pH =7.1). Glycyl dehydrophenylalanine (Gl-dh-Ph) and imipenem were employed as control compounds, and they were adjusted in situ each to give a concentration of 117µM with the same sodium phosphate buffer solution. The test compound according to the present invention and the control compounds were treated in substantially the same manner as (1) above. The incubation, however, was conducted at 37°C for 4.5 hours or for 24 hours. The degree of hydrolysis of the compounds each after the test periods was measured by the HPLC method.

[2] = system: Serratia marcescens IAM1184; experiment: Antibacterial test, agar plate dilution method (MIC); assay type: cell-based; conditions: MH agar, 37°C, 18 hours
Description: (§1) The antibacterial activities were tested by an agar plate dilution method in accordance with the standard method of The Japanese Chemotherapy Society [Chemotherapy, Vol. 29, 76-79 (1981)].
(§2) A Mueller-Hinton (MH) agar liquid medium of a test microorganism was cultured overnight at 37°C and the resultant culture medium was diluted with a buffered saline gelatin (BSG) solution to contain approximately 10⁶ cells of the test microorganisms per milliliter, and then the diluted solution was inoculated with a micro-planter at the rate of approximately 5 microliters on a MH agar medium containing a test compound. This medium was then incubated at 37°C for 18 hours. The minimum inhibitory concentration (MIC) is determined as a minimum concentration in which no test microorganism could grow. It is noted here that the test organisms used were all standard strains.

[3] = system: Pseudomonas aeruginosa NCTC 10490; experiment: as above; assay type: cell-based; conditions: NCTC10490, MH agar, 37°C, 18 hours
Description: as §1, §2

[4] = system: Salmonella typhi 901; experiment: as above; assay type: cell-based; conditions: Salmonella enterica, 18 h
Description: as §1, §2

[5] = system: Salmonella schottmuelleri 8006; experiment: as above; assay type: cell-based; conditions: MH agar, 37°C, 18 hours
Description: as §1, §2

[6] = system: Streptococcus pyogenes Cook; experiment: as above; assay type: cell-based; conditions: MH agar, 37°C, 18 hours
Description: as §1, §2

[7] = system: Proteus mirabilis IFO3849; experiment: as above; assay type: cell-based
Description: as §1, §2

[8] = system: Bacillus subtilis ATCC6633; experiment: as above; assay type: cell-based; conditions: MH agar, 37°C, 18 hours
Description: as §1, §2

[9] = system: Pseudomonas aeruginosa IFO 3445; experiment: as above; assay type: cell-based; conditions: IFO3445, MH agar, 37°C, 18 hours
Description: as §1, §2

[10] = system: Salmonella enteritidis G14; experiment: as above; assay type: cell-based; conditions: Salmonella enterica
Description: as §1, §2

[11] = system: Salmonella paratyphi 1015; experiment: as above; assay type: cell-based; conditions: Salmonella enterica, MH agar, 37°C, 18 hours
Description: as §1, §2

[12] = system: Escherichia coli K12 C600; experiment: as above; assay type: cell-based; conditions: K12C600, MH agar, 37°C, 18 hours
Description: as §1, §2

[13] = system: Salmonella typhimurium IID971; experiment: as above; assay type: cell-based; conditions: Salmonella enterica, MH agar, 37°C, 18 hours
Description: as §1, §2

[14] = system: Providencia rettgeri IFO 3850; experiment: as above; assay type: cell-based; conditions: IFO3850, MH agar, 37°C, 18 hours
Description: as §1, §2

[15] = system: Klebsiella pneumoniae PCI-602; experiment: as above; assay type: cell-based; conditions: PCI602, MH agar, 37°C, 18 hours
Description: as §1, §2

[16] = system: Staphylococcus aureus Terajima; experiment: as above; assay type: cell-based; conditions: MH agar, 37°C, 18 hours
Description: as §1, §2

[17] = system: Staphylococcus aureus MS353; experiment: as above; assay type: cell-based; conditions: MH agar, 37°C, 18 hours
Description: as §1, §2

[18] = system: Staphylococcus aureus FDA 209PJC-1; experiment: as above; assay type: cell-based; conditions: FDA209PJC1, MH agar, 37°C, 18 hours
Description: as §1, §2

[19] = system: Escherichia coli NIHJ JC-2; experiment: as above; assay type: cell-based; conditions: NIHJJC2, MH agar, 37°C, 18 hours
Description: as §1, §2

[20] = system: Enterobacter cloacae 963; experiment: as above; assay type: cell-based; conditions: MH agar, 37°C, 18 hours
Description: as §1, §2

[21] = system: Micrococcus luteus ATCC9341; experiment: as above; assay type: cell-based; conditions: MH agar, 37°C, 18 hours
Description: as §1, §2

[22] = system: Morganella morganii IFO3848; experiment: as above; assay type: cell-based; conditions: MH agar, 37°C, 18 hours
Description: as §1, §2

[23] = system: Proteus vulgaris HX-19; experiment: as above; assay type: cell-based; conditions: HX19, MH agar, 37°C, 18 hours
Description: as §1, §2

[24] = system: Proteus vulgaris OX-19; experiment: as above; assay type: cell-based; conditions: OX19, MH agar, 37°C, 18 hours
Description: as §1, §2

[25] = system: Enterobacter aerogenes ATCC1304; experiment: as above; assay type: cell-based; conditions: Klebsiella aerogenes
Description: as §1, §2

[26] = molecular target: T1, Swine Kidney Dehydropeptidase-I (DHP-I); experiment: Hydrolysis activity against DHP-I enzyme substrate by late assay (decrease in absorbency); assay type: biochemical; conditions: final substrate concentration 100µM; 37°C, 10 minutes; pH 7.1
Description: The swine kidney (8 kg) was homogenized and the enzyme protein was allowed to precipitate. After a connective lipid was removed with acetone, the resultant material was made soluble by treatment with butanol and purified by the ammonium sulfate fraction method, thereby producing DHP-I enzyme from a 75 % ammonium sulfate fraction. The DHP-I enzyme was then adjusted to give an enzyme concentration of 25 mg/10 ml (phosphate buffer, pH 7.1), and divided into 1 ml portions. The portions were frozen and stored at -40°C or less until use. Glycyl dehydrophenylalanine (Gl-dh-Ph) and imipenem were employed as control compounds, and they were adjusted in situ each to give a concentration of 117µM with the same sodium phosphate buffer solution. […] The solution was then incubated at 37°C for 10 minutes. The initial velocity of hydrolysis of the substrate was measured from a decrease in absorbency at a particular λmax of each of the substrates. A blank test was conducted in substantially the same manner as above by adding 0.2 ml of the sodium phosphate buffer solution (pH 7.1) to 1.2 ml of the above substrate.

[27] = system: male mice of CrjCD(SD) strain; experiment: Toxicity study in mice, subcutaneous administration, observation for one week; assay type: in vivo; conditions: 500 mg/kg, subcutaneously
Description: Toxicological studies were carried out using a group of 10 male mice of CrjCD(SD) strain weighing from 20 to 23 grams. A solution containing the carbapenem compound (11) of the present invention obtained by Example 3 was administered subcutaneously to the mice and subjected to observations for one week.

T1 sequence (P22412 17-384): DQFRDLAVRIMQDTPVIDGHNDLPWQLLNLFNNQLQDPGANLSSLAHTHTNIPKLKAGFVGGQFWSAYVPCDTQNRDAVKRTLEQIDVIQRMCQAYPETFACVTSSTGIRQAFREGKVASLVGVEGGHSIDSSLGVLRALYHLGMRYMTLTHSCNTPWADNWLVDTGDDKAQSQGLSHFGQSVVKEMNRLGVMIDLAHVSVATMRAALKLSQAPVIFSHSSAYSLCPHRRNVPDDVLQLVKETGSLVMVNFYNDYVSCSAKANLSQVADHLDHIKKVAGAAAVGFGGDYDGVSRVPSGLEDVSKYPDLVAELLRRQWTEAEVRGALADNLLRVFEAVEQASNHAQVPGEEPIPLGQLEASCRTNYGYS

**Q.** Which “DEGREES OF HYDROLYSIS BY DHP-I” value [1] does the source give for `C[C@@H](O)[C@H]1C(=O)N2C(C(=O)O)=C(SCCNC=N)C[C@H]12` [Imipenem, imipenem] here?
**A.** 77.6 µM

**Q.** What about the MIC [2] of the same compound?
**A.** 0.2 µg/mL (≈ 0.668 µM)

**Q.** What about the MIC [3] of the same compound?
**A.** 0.39 µg/mL (≈ 1.3 µM)

**Q.** And the MIC [4]?
**A.** 0.05 µg/mL (≈ 0.167 µM)

**Q.** What about the MIC [5] of the same compound?
**A.** 0.78 µg/mL (≈ 2.61 µM)

**Q.** And the MIC [6]?
**A.** < 0.006 µg/mL

**Q.** And the MIC ([7]; Proteus mirabilis, IFO3849, 18 h)?
**A.** 6.25 µg/mL (≈ 20.9 µM)

**Q.** And the MIC [8]?
**A.** 0.025 µg/mL (≈ 0.0835 µM)

**Q.** What about the MIC [9] of the same compound?
**A.** 0.78 µg/mL (≈ 2.61 µM)

**Q.** What about the MIC ([10]; ENTERITIDIS, 18 h) of the same compound?
**A.** 1.56 µg/mL (≈ 5.21 µM)

**Q.** What about the MIC [11] of the same compound?
**A.** 1.56 µg/mL (≈ 5.21 µM)

**Q.** And the MIC [12]?
**A.** 3.13 µg/mL (≈ 10.5 µM)

**Q.** And the MIC [13]?
**A.** 0.2 µg/mL (≈ 0.668 µM)

**Q.** What about the MIC [14] of the same compound?
**A.** 0.05 µg/mL (≈ 0.167 µM)

**Q.** What about the MIC [15] of the same compound?
**A.** 0.2 µg/mL (≈ 0.668 µM)

**Q.** What about the MIC [16] of the same compound?
**A.** < 0.006 µg/mL

**Q.** What about the MIC [17] of the same compound?
**A.** 0.013 µg/mL (≈ 0.0434 µM)

**Q.** And the MIC [18]?
**A.** 0.013 µg/mL (≈ 0.0434 µM)

**Q.** What about the MIC [19] of the same compound?
**A.** 0.1 µg/mL (≈ 0.334 µM)

**Q.** And the MIC [20]?
**A.** 0.78 µg/mL (≈ 2.61 µM)

**Q.** What about the MIC [21] of the same compound?
**A.** < 0.006 µg/mL

**Q.** What about the MIC [22] of the same compound?
**A.** 3.13 µg/mL (≈ 10.5 µM)

**Q.** And the MIC [23]?
**A.** 3.13 µg/mL (≈ 10.5 µM)

**Q.** And the MIC [24]?
**A.** 3.13 µg/mL (≈ 10.5 µM)

**Q.** What about the MIC ([25]; ATCC1304, 18 h) of the same compound?
**A.** 1.56 µg/mL (≈ 5.21 µM)

**Q.** What about the “initial velocity of hydrolysis” value [26] of the same compound?
**A.** 0.56 µM/min

**Q.** For `NCC(=O)NC(=Cc1ccccc1)C(=O)O` [Gl-dh-Ph, Glycyl dehydrophenylalanine], which “initial velocity of hydrolysis” value [26] is on record?
**A.** 17.4 µM/min

**Q.** Which “toxicity: survival and abnormal observations” value [27] does the source give for `C[C@@H](O)[C@H]1C(=O)N2C(C(=O)[O-])=C(SCCn3cnc[n+]3C)[C@H](C)[C@H]12` [Compound (11), (1R,5S,6S)-6-[(R)-1-hydroxyethyl]-1-methyl-2-[2-(1-methyl-1,2,4-triazolium-2-yl)ethyl]thio-carbapenem-3-carboxylate] here?
**A.** alive without any abnormal observations

**Q.** And the MIC [2]?
**A.** 0.2 µg/mL (≈ 0.568 µM)

**Q.** What about the MIC [3] of the same compound?
**A.** 0.78 µg/mL (≈ 2.21 µM)

**Q.** And the MIC [4]?
**A.** 0.05 µg/mL (≈ 0.142 µM)

**Q.** What about the MIC [5] of the same compound?
**A.** 0.39 µg/mL (≈ 1.11 µM)

**Q.** And the MIC [6]?
**A.** 0.05 µg/mL (≈ 0.142 µM)

**Q.** What about the MIC ([7]; Proteus mirabilis IFO3849, MH agar, 37°C, 18 hours, read-out: MIC) of the same compound?
**A.** 1.56 µg/mL (≈ 4.43 µM)

**Q.** What about the MIC [8] of the same compound?
**A.** 0.2 µg/mL (≈ 0.568 µM)

**Q.** What about the MIC [9] of the same compound?
**A.** 1.56 µg/mL (≈ 4.43 µM)

**Q.** What about the MIC ([10]; Salmonella enteritidis G14, MH agar, 37°C, 18 hours, read-out: MIC) of the same compound?
**A.** 0.78 µg/mL (≈ 2.21 µM)

**Q.** What about the MIC [11] of the same compound?
**A.** 0.78 µg/mL (≈ 2.21 µM)

**Q.** What about the MIC [12] of the same compound?
**A.** 0.78 µg/mL (≈ 2.21 µM)

**Q.** And the MIC [13]?
**A.** 0.2 µg/mL (≈ 0.568 µM)

**Q.** What about the MIC [14] of the same compound?
**A.** 0.05 µg/mL (≈ 0.142 µM)

**Q.** And the MIC [15]?
**A.** 0.2 µg/mL (≈ 0.568 µM)

**Q.** And the MIC [16]?
**A.** 0.025 µg/mL (≈ 0.0709 µM)

**Q.** What about the MIC [17] of the same compound?
**A.** 0.05 µg/mL (≈ 0.142 µM)

**Q.** And the MIC [18]?
**A.** 0.1 µg/mL (≈ 0.284 µM)

**Q.** What about the MIC [19] of the same compound?
**A.** 0.1 µg/mL (≈ 0.284 µM)

**Q.** And the MIC [20]?
**A.** 0.1 µg/mL (≈ 0.284 µM)

**Q.** And the MIC [21]?
**A.** 0.1 µg/mL (≈ 0.284 µM)

**Q.** And the MIC [22]?
**A.** 0.39 µg/mL (≈ 1.11 µM)

**Q.** What about the MIC [23] of the same compound?
**A.** 0.78 µg/mL (≈ 2.21 µM)

**Q.** And the MIC [24]?
**A.** 0.78 µg/mL (≈ 2.21 µM)

**Q.** What about the MIC ([25]; Enterobacter aerogenes ATCC1304, MH agar, 37°C, 18 hours, read-out: MIC) of the same compound?
**A.** 0.78 µg/mL (≈ 2.21 µM)
